This is an account of results in ChEMBL document CHEMBL4477213, “Discovery and Optimization of Quinazolinone-pyrrolopyrrolones as Potent and Orally Bioavailable Pan-Pim Kinase Inhibitors” (J Med Chem, 2016).

A word on the solubility: it is how much of the substance goes into solution per volume. A word on the EC50: it is the concentration needed to bring the measured effect to its halfway point. As a reminder, the bioavailability is dose-corrected exposure relative to a reference, in per cent. What is called Papp is a coefficient for how fast a substance crosses the barrier.

The test system of series [1] is Mus musculus. The experiment in a line: In vivo inhibition of pan Pim in SCID-bg mouse xenografted with human KMS-12-BM cells assessed as phosphorylation of BAD peptide at Serine 112 residue at 10 mg/kg, po qd measured at 8 hrs post dose relative to control. It is filed as functional. More on the design: scale not given: the % may be the effect or the level left.

Series [2] concerns Mus musculus. Kind of series: In vivo inhibition of pan Pim in SCID-bg mouse xenografted with human KMS-12-BM cells assessed as phosphorylation of BAD peptide at Serine 112 residue at 10 mg/kg, po qd measured at 24 hrs post dose relative to control. The format is functional. More on the design: scale not given: the % may be the effect or the level left. (In general: A xenograft is tissue or cells of one species grown in another, often human tumour cells in immunodeficient mice.)

A short description of series [3]: Fraction unbound in mouse plasma. It is filed as ADME, cell-free.
The nature of series [4]: Aqueous solubility of the compound in FaSIF at pH 6.8 after 1 hr by LC/MS analysis.
A short description of series [5]: Volume of distribution at steady state in rat at 2 mg/kg, iv or 5 mg/kg, po. It is filed as ADME, organism-based. Conditions: in vivo, read-out: Vdss.
The test system of the next series is KMS-12-BM. The experiment in a line: Antitumor activity against human KMS-12-BM cells xenografted in po dosed SCID-bg mouse assessed as tumor growth inhibition administered once daily measured twice per week. The format is functional, organism-based.
The subject of series [6] is Mus musculus. Kind of series: In vivo inhibition of pan Pim in SCID-bg mouse xenografted with human KMS-12-BM cells assessed as phosphorylation of BAD peptide at Serine 112 residue at 100 mg/kg, po qd measured at 12 hrs post dose relative to control. It is filed as functional. The arrangement: scale not given: the % may be the effect or the level left.
For series [7], the system named is Mus musculus. The experiment in a line: In vivo inhibition of pan Pim in SCID-bg mouse xenografted with human KMS-12-BM cells assessed as phosphorylation of BAD peptide at Serine 112 residue at 100 mg/kg, po qd measured at 4 hrs post dose relative to control. It is filed as functional. More on the design: scale not given: the % may be the effect or the level left.

Series [8] deals with Mus musculus. The experiment in a line: In vivo inhibition of pan Pim in SCID-bg mouse xenografted with human KMS-12-BM cells assessed as phosphorylation of BAD peptide at Serine 112 residue at 100 mg/kg, po qd measured at 8 hrs post dose relative to control. The arrangement: scale not given: the % may be the effect or the level left. The format is functional.
Series [9] has as its system Mus musculus. The experiment in a line: In vivo inhibition of pan Pim in SCID-bg mouse xenografted with human KMS-12-BM cells assessed as phosphorylation of BAD peptide at Serine 112 residue at 10 mg/kg, po qd measured at 12 hrs post dose relative to control. It is filed as functional. More on the design: scale not given: the % may be the effect or the level left.
In series [10] the test system is Mus musculus. Kind of series: In vivo inhibition of pan Pim in SCID-bg mouse xenografted with human KMS-12-BM cells assessed as phosphorylation of BAD peptide at Serine 112 residue at 25 mg/kg, po qd measured at 1 hr post dose relative to control. The format is functional. The arrangement: scale not given: the % may be the effect or the level left.
Series [11] has as its system Mus musculus. Kind of series: In vivo inhibition of pan Pim in SCID-bg mouse xenografted with human KMS-12-BM cells assessed as plasma concentration required for reduction of BAD peptide phosphorylation at Serine 112 residue at 10 to 100 mg/kg, po qd measured after 1 to 24 hrs post dose. The format is functional, organism-based.
Series [12] in a line: Oral bioavailability in rat at 5 mg/kg. The format is ADME, organism-based. Conditions: in vivo.
Series [13] can be described thus: Apparent permeability in pig LLC-PK1 cells. It is filed as ADME, cell-based, Sus scrofa.
Series [14] addresses T1, Mitogen-activated protein kinase kinase kinase 19 (Homo sapiens) (UniProt Q56UN5).
T1 sequence (whole entry): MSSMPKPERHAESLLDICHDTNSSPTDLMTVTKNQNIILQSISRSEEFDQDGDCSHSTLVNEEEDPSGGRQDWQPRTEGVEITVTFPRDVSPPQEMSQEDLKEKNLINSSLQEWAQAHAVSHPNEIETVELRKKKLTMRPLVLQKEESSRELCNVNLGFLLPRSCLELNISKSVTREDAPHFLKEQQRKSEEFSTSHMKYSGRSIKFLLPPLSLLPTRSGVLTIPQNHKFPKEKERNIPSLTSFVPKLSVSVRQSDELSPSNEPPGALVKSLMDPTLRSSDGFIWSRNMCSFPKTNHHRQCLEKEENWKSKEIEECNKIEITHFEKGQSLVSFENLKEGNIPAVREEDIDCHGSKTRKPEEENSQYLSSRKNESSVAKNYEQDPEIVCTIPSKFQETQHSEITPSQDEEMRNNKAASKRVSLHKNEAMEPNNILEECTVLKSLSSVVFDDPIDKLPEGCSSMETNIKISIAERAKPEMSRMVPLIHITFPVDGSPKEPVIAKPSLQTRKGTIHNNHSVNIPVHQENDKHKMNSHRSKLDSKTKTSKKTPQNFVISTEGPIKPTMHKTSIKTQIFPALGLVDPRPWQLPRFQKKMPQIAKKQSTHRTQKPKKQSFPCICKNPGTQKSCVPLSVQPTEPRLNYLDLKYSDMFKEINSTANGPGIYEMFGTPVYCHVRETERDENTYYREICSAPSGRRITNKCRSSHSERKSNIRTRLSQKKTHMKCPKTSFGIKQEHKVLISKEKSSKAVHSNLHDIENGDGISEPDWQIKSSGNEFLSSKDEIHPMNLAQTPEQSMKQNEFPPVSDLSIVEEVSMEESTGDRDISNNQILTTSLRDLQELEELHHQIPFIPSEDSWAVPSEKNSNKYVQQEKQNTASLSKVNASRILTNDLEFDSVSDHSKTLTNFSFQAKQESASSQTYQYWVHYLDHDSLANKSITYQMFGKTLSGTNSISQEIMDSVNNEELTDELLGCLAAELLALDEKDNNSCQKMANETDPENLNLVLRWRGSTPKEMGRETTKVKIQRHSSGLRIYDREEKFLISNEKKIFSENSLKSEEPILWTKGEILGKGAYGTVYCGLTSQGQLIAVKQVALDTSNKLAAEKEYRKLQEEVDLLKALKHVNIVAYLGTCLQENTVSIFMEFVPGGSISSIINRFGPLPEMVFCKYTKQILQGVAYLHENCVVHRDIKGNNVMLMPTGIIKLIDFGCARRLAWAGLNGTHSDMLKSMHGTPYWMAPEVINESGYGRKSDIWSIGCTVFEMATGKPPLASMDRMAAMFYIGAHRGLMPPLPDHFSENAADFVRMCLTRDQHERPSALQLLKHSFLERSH
The experiment in a line: Inhibition of human YSK4 (1019 to 1328 residues) expressed in mammalian system assessed as remaining enzyme activity at 1 uM by KINOMEScan assay relative to control.

In series [15] the test system is Mus musculus. Kind of series: In vivo inhibition of pan Pim in SCID-bg mouse xenografted with human KMS-12-BM cells assessed as phosphorylation of BAD peptide at Serine 112 residue at 50 mg/kg, po qd measured at 1 hr post dose relative to control. It is filed as functional. The arrangement: scale not given: the % may be the effect or the level left.
For series [16], the target named is Casein kinase II subunit alpha (Homo sapiens) (UniProt P68400). The experiment in a line: Inhibition of full length human CSNK2A1 expressed in mammalian system assessed as remaining enzyme activity at 1 uM by KINOMEScan assay relative to control.
Casein kinase II subunit alpha (Homo sapiens), sequence (P68400 whole entry, looked up): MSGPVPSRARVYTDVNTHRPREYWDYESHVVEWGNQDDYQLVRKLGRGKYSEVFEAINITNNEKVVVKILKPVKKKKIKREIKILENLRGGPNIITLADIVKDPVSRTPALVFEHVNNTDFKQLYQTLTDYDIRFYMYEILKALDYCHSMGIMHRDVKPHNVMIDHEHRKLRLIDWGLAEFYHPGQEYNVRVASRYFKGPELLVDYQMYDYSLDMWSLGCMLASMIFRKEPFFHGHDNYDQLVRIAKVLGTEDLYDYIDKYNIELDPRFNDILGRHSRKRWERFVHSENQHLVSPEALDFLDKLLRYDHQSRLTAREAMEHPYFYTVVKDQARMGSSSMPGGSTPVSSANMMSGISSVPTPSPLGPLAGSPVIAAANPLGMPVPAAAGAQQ
For series [17], the system named is Mus musculus. Kind of series: In vivo inhibition of pan Pim in SCID-bg mouse xenografted with human KMS-12-BM cells assessed as phosphorylation of BAD peptide at Serine 112 residue at 10 mg/kg, po qd measured at 1 hr post dose relative to control. The format is functional. The arrangement: scale not given: the % may be the effect or the level left.
Series [18] in a line: Volume of distribution at steady state in dog at 0.3 mg/kg, iv. It is filed as ADME, organism-based, Canis lupus familiaris. The following applies: in vivo, read-out: Vdss.

Converted amounts (≈) assume the structure as drawn.

In the case of `C[C@H]1NC(=O)c2cc(-c3cccc4c(=O)n(C)c(NC(C)(C)C)nc34)[nH]c21`, the Activity in the series on Mus musculus [1] was 41%; with Mus musculus [2] it was 0%; in the series with Mus musculus [6] it was 66%; in the series on Mus musculus [7] it was 63%; with Mus musculus [8], 70%; with Mus musculus [9], 34%. For the same compound, the Activity was 60% with Mus musculus [10]; 0.4% in series [14]; 61% in the series with Mus musculus [15]; 3.5% in series [16]; 52% in the series with Mus musculus [17]. Further, in series [3], the “Cp(f)” value is listed as 21.4 nM. The compound further displayed a solubility at 1 h in [4] of 104 µM (≈ 38 µg/mL). In addition, the Vd in [5] was found to be 1.5 L/kg; in series [18], 1 L/kg. Further, the TGI result with KMS-12-BM is “Dose-dependent effect”. In the series on Mus musculus [11], the EC50 stood at 254 nM. The compound further came in with a bioavailability in [12] of 39%. In addition, the Papp in series [13] was found to be 44 ×10⁻⁶ cm/s.
